Experimental data reported in US20100144802A1, “Small Molecule Inhibitors for Immune Modulation” (priority 2007, published 2010).

How the values were obtained:
macrophages = assay: Macrophage intracellular cytokine production by flow cytometry; assay type: cell-based, human; details: 4 hrs
Experimental: PBMCs from normal human donors (n=5) were incubated for 24 hrs at 37° C., 5% CO2, in either medium (RPMI 1640+10% fetal bovine serum) or medium supplemented with 5 μM WP1066. Cells were then stained with fluorescent antibodies to CD11b and either CD80 or CD86 and analyzed by flow cytometry. Glioma-infiltrating microglia were purified from freshly resected GBM patient tumor tissue (n=3) and incubated in either medium or medium supplemented with WP1066 (1 μM). After incubation, microglia (CD11b^+/CD45^+) were double stained with fluorescent antibodies to CD11b and either CD80 or CD86, and analyzed by flow cytometry. Numbers in the upper right quadrant of each graph denote the percentage of CD11b^+ gated cells that express either CD80 or CD86. […] Cells were then labeled with CD11b/CD14 macrophage markers and stained and analyzed for intracellular cytokine production. Percentages of macrophages that were CD11b^+/CD14^+ and also positive for the respective cytokine were calculated by flow cytometry analysis. A scatter plot representative of all samples analyzed for macrophage intracellular cytokine production was determined with LPS-treated cells (circles) and WP1066-treated cells (diamonds). The black bars denote the mean values of each subgroup, p values determining statistical significance between LPS-stimulated groups and WP1066-stimulated groups were determined using Student's t test (NS, not statistically significant). […] Carboxyfluoroscein succinimidyl ester (CFSE)-labeled CD8^+ T cells isolated from newly diagnosed GBM patients were incubated with untreated autologous APCs (CD11b^+/CD14^+) and anti-CD3 antibody, with anti-CD3 antibody+anti-CD28 antibody, and with LPS-treated (5 μg/mL) autologous APCs or WP1066-treated (1 μM) autologous APCs. In all cases, cells were incubated for 4 days at 37° C., 5% CO2, followed by surface staining for T cell markers (CD3, CD8) and analysis by flow cytometry. The number on each plot indicates the percentage of CD8^+ gated cells that have undergone cell division via CFSE dilution. […] For (A-C), modified Percoll density gradient (1.083 g/mL) centrifugation was used to isolate PBMCs of both GBM patients and normal donors. CD8+ T cells were isolated by magnetic bead separation and then labeled with CFSE. Autologous APCs were purified from the above density gradient buffy-coat layer by negative selection, using a monocyte bead isolation kit and magnetic separation column. Purity of all cell populations was determined to be at least 97% by flow cytometry. Autologous microglia/macrophages from GBM patients were purified from freshly resected human glioma/brain tissue using a modified Percoll gradient isolation technique. All APCs were treated with the respective stimulants (control medium alone, LPS, or WP1066) for 24 hours and then washed prior to incubation with T cells in the proliferation assay. […] T cells from the same patients were isolated with human CD3 microbeads and a magnetic separation column, with the exception of one patient who lacked sufficient PBMCs for both monocyte and T cell isolations. Monocytes or T cells seeded at a density of 1×10^6 cells per well in 6-well culture plates and were incubated at 37° C., 5% CO2, with either the medium or medium supplemented with 5 μM WP1066. After 2 hours, monocytes and T cells were stimulated for 5 minutes with 2 μg/mL LPS and 5 μg/mL anti-CD3 antibody, respectively, in the presence or absence of WP1066. […]

[1] = system: T cells isolated from peripheral blood of GBM patients; assay: T cell proliferation (CFSE dilution) with treated antigen-presenting cells; assay type: cell-based, human; details: GBM patient T cells with treated macrophages/APCs; WP1066 1 μM, LPS 5 μg/mL, 4 days
Experimental: PBMCs from normal human donors (n=5) were incubated for 24 hrs at 37° C., 5% CO2, in either medium (RPMI 1640+10% fetal bovine serum) or medium supplemented with 5 μM WP1066. Cells were then stained with fluorescent antibodies to CD11b and either CD80 or CD86 and analyzed by flow cytometry. Glioma-infiltrating microglia were purified from freshly resected GBM patient tumor tissue (n=3) and incubated in either medium or medium supplemented with WP1066 (1 μM). After incubation, microglia (CD11b^+/CD45^+) were double stained with fluorescent antibodies to CD11b and either CD80 or CD86, and analyzed by flow cytometry. […] Cells were then labeled with CD11b/CD14 macrophage markers and stained and analyzed for intracellular cytokine production. Percentages of macrophages that were CD11b^+/CD14^+ and also positive for the respective cytokine were calculated by flow cytometry analysis. A scatter plot representative of all samples analyzed for macrophage intracellular cytokine production was determined with LPS-treated cells (circles) and WP1066-treated cells (diamonds). The black bars denote the mean values of each subgroup, p values determining statistical significance between LPS-stimulated groups and WP1066-stimulated groups were determined using Student's t test (NS, not statistically significant). […] Purity of all cell populations was determined to be at least 97% by flow cytometry. […]

CD80 and CD86 [2] = details: cited from earlier work
Foxp3 = assay: Intracellular Foxp3 expression in iTreg differentiation and natural Tregs by flow cytometry; assay type: cell-based, C57BL/6J mice; details: 0, 0.1 and 1 μM, more than 96 hours
Experimental: CD4+CD25−CD62L^hi naïve T cells from C57BL/6J mice were stimulated by plate-bound anti-CD3 (2 μg/ml) and soluble anti-CD28 (2 μg/ml) antibodiesin the presence of TGF-β1 (1 ng/ml) plus hIL-2 (200 U/ml) with addition of different concentrations of WP1066 (0, 0.1, and 1 μM) for inducible Treg (iTreg) differentiation; CD4+CD25+ T cells (natural Tregs [nTreg]) were stimulated by plate-bound anti-CD3 (2 μg/ml) antibodies in the presence of hIL-2 (200 U/ml) with addition of different concentrations of WP1066 (0, 0.1, and 1 μM). More than 96 hours after stimulation, the cells were analyzed for intracellular Foxp3 expression using flow cytometry.

CD80 and CD86 [3] = assay: Costimulatory molecule expression (CD80, CD86) by flow cytometry; assay type: cell-based, human
Experimental: (§1) PBMCs from normal human donors (n=5) were incubated for 24 hrs at 37° C., 5% CO2, in either medium (RPMI 1640+10% fetal bovine serum) or medium supplemented with 5 μM WP1066. Cells were then stained with fluorescent antibodies to CD11b and either CD80 or CD86 and analyzed by flow cytometry. Glioma-infiltrating microglia were purified from freshly resected GBM patient tumor tissue (n=3) and incubated in either medium or medium supplemented with WP1066 (1 μM). After incubation, microglia (CD11b^+/CD45^+) were double stained with fluorescent antibodies to CD11b and either CD80 or CD86, and analyzed by flow cytometry. Numbers in the upper right quadrant of each graph denote the percentage of CD11b^+ gated cells that express either CD80 or CD86. […] Cells were then labeled with CD11b/CD14 macrophage markers and stained and analyzed for intracellular cytokine production. Percentages of macrophages that were CD11b^+/CD14^+ and also positive for the respective cytokine were calculated by flow cytometry analysis. A scatter plot representative of all samples analyzed for macrophage intracellular cytokine production was determined with LPS-treated cells (circles) and WP1066-treated cells (diamonds). The black bars denote the mean values of each subgroup, p values determining statistical significance between LPS-stimulated groups and WP1066-stimulated groups were determined using Student's t test (NS, not statistically significant). […] Carboxyfluoroscein succinimidyl ester (CFSE)-labeled CD8^+ T cells isolated from newly diagnosed GBM patients were incubated with untreated autologous APCs (CD11b^+/CD14^+) and anti-CD3 antibody, with anti-CD3 antibody+anti-CD28 antibody, and with LPS-treated (5 μg/mL) autologous APCs or WP1066-treated (1 μM) autologous APCs. In all cases, cells were incubated for 4 days at 37° C., 5% CO2, followed by surface staining for T cell markers (CD3, CD8) and analysis by flow cytometry. […] Purity of all cell populations was determined to be at least 97% by flow cytometry. […]

[4] = system: monocytes isolated from GBM patients; assay: Immunoblotting of signaling proteins in GBM patient monocytes; assay type: cell-based, human; details: 5 μM
Experimental: (§2) To determine how WP1066 induces these potent immune responses, T cells and monocytes isolated from GBM patients were treated with WP1066 and subsequently lysed and analyzed by immunoblotting for critical signaling proteins. […] The tyrosine phosphorylation of Syk initiates downstream signaling events during human monocyte activation, whereas the phosphorylation of Tyr319 in Zap-70 plays a critical role in mediating T cell activation via signaling through the T cell receptor. Raeder, E. M. et al. J Immunol 163, 6785-93 (1999); Williams, B. L. et al. EMBO 18, 1832-1844 (1999). Both Syk and ZAP-70 can be phosphorylated through autophosphorylation and transphosphorylation. […] The tyrosine phosphorylation of critical signaling proteins induced/enhanced by WP1066 are likely pivotal to the WP1066-induced restoration of immune function in GBM patients and explains the mechanisms of potent immune activation.
as §1, with “APCs.” for “APCs. In all cases, cells were incubated for 4 days at 37° C., 5% CO2, followed by surface staining for T cell markers (CD3, CD8) and analysis by flow cytometry.”

[5] = system: tumor cell types, including malignant gliomas; details: variety of tumor cell types; cited from earlier work
intracerebral B16 = assay: Survival of nude mice with established intracerebral B16; assay type: in vivo
Stat-3 = biological target: T1, Stat-3 (Homo sapiens, UniProt P40763); assay: Phosphorylated Stat-3 by intracellular staining and flow cytometry in PBMCs; assay type: cell-based; details: doses achievable in vivo (1 nM-5 μM)
T1 construct: normal donor peripheral blood mononuclear cells (PBMCs) were assessed for phosphorylated Stat-3 activity; endogenous in cells; host or cells: normal donor peripheral blood mononuclear cells (PBMCs)

intracerebral B16 cells = assay: Survival of C57BL/6J mice with established intracerebral tumors; assay type: in vivo
normal donor PBMCs = assay: Cell death (propidium iodide) of macrophages and T cells in PBMCs; assay type: cell-based, human; details: 1 nM-5 μM, 2 and 4 hours
Experimental: (§3) FIG. 1 depicts the novel small molecule inhibitor, WP1066, that inhibits Stat-3 activity and has significant central nervous system (CNS) and glioma tumor penetration in vitro and in vivo. FIG. 1A provides the chemical structure of WP1066. […] WP1066 was injected intraperitoneally (IP) at doses of 100 mg/kg every other day for two weeks in nude mice. Specifically, plasma, CNS tissue, and U87-MG flank tumors were harvested and, after extraction, were analyzed for WP1066 content using tandem liquid chromatography/mass spectrometry. […] Cells were stained with fluorescently-labeled anti-CD3 and anti-CD11b antibodies, and propidium iodide (PI) and analyzed by flow cytometry. Macrophages and T cells were gated on CD11b^+ and CD3^+ populations, respectively, and cell death (%) was quantified as CD11b^+PI^+ or CD3^+PI^+ populations in the respective plots. Plots represent the 5 μM maximum dose (clear histogram) compared to control untreated cells (shaded histogram) incubated under similar conditions.

T cells = assay: Immunoblotting of signaling proteins in GBM patient T cells; assay type: cell-based, human; details: 5 μM
Experimental: as §2
PBMCs from normal human donors (n=5) were incubated for 24 hrs at 37° C., 5% CO2, in either medium (RPMI 1640+10% fetal bovine serum) or medium supplemented with 5 μM WP1066. Cells were then stained with fluorescent antibodies to CD11b and either CD80 or CD86 and analyzed by flow cytometry. […] After incubation, microglia (CD11b^+/CD45^+) were double stained with fluorescent antibodies to CD11b and either CD80 or CD86, and analyzed by flow cytometry. […] Cells were then labeled with CD11b/CD14 macrophage markers and stained and analyzed for intracellular cytokine production. Percentages of macrophages that were CD11b^+/CD14^+ and also positive for the respective cytokine were calculated by flow cytometry analysis. A scatter plot representative of all samples analyzed for macrophage intracellular cytokine production was determined with LPS-treated cells (circles) and WP1066-treated cells (diamonds). The black bars denote the mean values of each subgroup, p values determining statistical significance between LPS-stimulated groups and WP1066-stimulated groups were determined using Student's t test (NS, not statistically significant). […]

[6] = Plasma concentration after oral administration; assay type: in vivo; details: mice
From the text: Patients with malignant human gliomas have a preponderance of immunosuppressive cytokines, a lack of effector/activated T cells, enhanced regulatory T cells (Tregs), and inadequate antigen-presentation functional activity, contributing to their profound immunosuppression. Known immune stimulators within these patients are insufficient to overcome these influences. Therefore, we investigated whether a pharmacological derivative of the natural compound, caffeic acid (WP1066)(FIG. 1A), a small molecule inhibitor of Stat-3 activity, can (in physiologically relevant doses) attenuate these suppressed immune responses.

[7] = mouse, in vivo
Experimental: as §3

[8] = normal donors and GBM patients, 5 μM

T1 sequence (P40763 whole entry): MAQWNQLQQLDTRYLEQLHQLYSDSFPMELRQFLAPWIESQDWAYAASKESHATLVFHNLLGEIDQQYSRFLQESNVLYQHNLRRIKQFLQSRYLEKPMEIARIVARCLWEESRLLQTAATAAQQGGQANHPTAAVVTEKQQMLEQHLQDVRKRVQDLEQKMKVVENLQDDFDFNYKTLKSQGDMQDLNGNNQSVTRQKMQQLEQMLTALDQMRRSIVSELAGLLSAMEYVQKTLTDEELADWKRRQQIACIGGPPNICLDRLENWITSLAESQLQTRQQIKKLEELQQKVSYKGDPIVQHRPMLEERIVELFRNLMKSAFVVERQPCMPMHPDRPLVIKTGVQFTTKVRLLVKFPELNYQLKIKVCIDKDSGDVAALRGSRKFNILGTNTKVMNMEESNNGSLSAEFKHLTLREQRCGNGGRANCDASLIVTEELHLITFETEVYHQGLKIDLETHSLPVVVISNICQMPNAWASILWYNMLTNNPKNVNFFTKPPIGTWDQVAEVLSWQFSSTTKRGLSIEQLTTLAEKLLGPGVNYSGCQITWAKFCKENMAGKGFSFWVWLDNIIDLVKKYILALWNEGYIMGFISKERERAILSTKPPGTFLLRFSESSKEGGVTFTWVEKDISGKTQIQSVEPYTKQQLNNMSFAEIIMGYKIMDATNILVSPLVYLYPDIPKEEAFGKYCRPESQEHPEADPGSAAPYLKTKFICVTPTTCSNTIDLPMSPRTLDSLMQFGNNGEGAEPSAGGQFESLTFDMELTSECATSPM

lipopolysaccharide [LPS, reference compound]
IL-1β levels compared with WP1066 (macrophages; LPS 5 μg/mL): significantly higher levels
T cell proliferation [1]: unable to induce any T cell proliferation
up regulating costimulatory molecules on microglia isolated directly from GBM patients (CD80 and CD86 [2]): totally insufficient

C[C@H](NC(=O)/C(C#N)=C/c1cccc(Br)n1)c1ccccc1 [WP1066]
Foxp3 expression in natural Tregs (Foxp3): downregulates Foxp3 expression
Foxp3 induction in peripheral T cells (Foxp3; iTreg differentiation): inhibits Foxp3 induction
CD80 and CD86 on tumor-infiltrating microglia/macrophages from GBM patients (CD80 and CD86 [3]; 1 μM): capable of upregulating CD80 and CD86
CD80 and CD86 on normal donor PBMCs (CD80 and CD86 [3]; 5 μM, 24 hrs): capable of upregulating CD80 and CD86
up regulation of costimulation in human monocytes (CD80 and CD86 [3]; incubated with IL-10 and TGF-β (data not shown)): can be achieved
tyrosine phosphorylation in monocytes and T cells ([4]; proteins of 70 to 75 KDa and 50 to 60 KDa, also T cells): induced or enhanced
levels of p57/p59-Hck ([4]; monocytes): increased
phospho-p72Syk (Tyr352) ([4]; monocytes): induced
total protein level of Syk ([4]; monocytes): didn't affect
proapoptotic activity [5]: proapoptotic activity
IL-2 induction from macrophages (macrophages; [8]): induce
IL-4 induction from macrophages (macrophages; [8]): induce
IL-12 induction from macrophages (macrophages; [8]): induce
IL-15 induction from macrophages (macrophages; [8]): induce
clinical effectiveness (survival) in immune incompetent background (intracerebral B16): abrogates the clinical effectiveness
inhibition of Stat-3 within immune cells (Stat-3): inhibit Stat-3
immunological memory on rechallenge (intracerebral B16 cells; animals surviving longer than 78 days, tumor cells into contralateral hemisphere): minimal immunological memory was induced
anti-tumor efficacy (survival) (intracerebral B16 cells; established intracerebral B16 cells, oral gavage, compared with B16EGFRvIII model): Identical anti-tumor efficacy
efficacy after in vivo depletions of CD4+ and CD8+ T cells (intracerebral B16 cells; established intracerebral syngeneic murine models): abrogates the efficacy
cell viability (normal donor PBMCs): not compromised
levels of p56-Lck (T cells): increased
phospho-ZAP-70 (Tyr319) (T cells): induced
total protein level of ZAP-70 (T cells): markedly decreased
plasma concentrations [6]: > 2 µM
uptake of the compound by tumors versus other tissue [7]: higher drug content than any other tissue
central nervous system (CNS) concentrations ([7]; nude): 0.185 µM
concentrations in tumor ([7]; nude): 1.07 µM
concentrations per gram of tumor ([7]; nude): 362 μg/gram
concentrations within orthotopic gliomas ([7]; nude): 1.07 µM
T cell proliferation [1]: potently induced T cell proliferation
